The values below come from patent US12276654B2, “Chemical probe-dependent evaluation of protein activity and uses thereof” (The University of Chicago, priority 2017, dated 2025).

For orientation: IC50 means the concentration that inhibits the measured activity by half.

Structures are written as SMILES. “Also recorded” adds a separate entry of the source.

In one test the target is T1, NCEH1 (Homo sapiens, UniProt Q6PIU2).
T1 sequence (Q6PIU2 1-408): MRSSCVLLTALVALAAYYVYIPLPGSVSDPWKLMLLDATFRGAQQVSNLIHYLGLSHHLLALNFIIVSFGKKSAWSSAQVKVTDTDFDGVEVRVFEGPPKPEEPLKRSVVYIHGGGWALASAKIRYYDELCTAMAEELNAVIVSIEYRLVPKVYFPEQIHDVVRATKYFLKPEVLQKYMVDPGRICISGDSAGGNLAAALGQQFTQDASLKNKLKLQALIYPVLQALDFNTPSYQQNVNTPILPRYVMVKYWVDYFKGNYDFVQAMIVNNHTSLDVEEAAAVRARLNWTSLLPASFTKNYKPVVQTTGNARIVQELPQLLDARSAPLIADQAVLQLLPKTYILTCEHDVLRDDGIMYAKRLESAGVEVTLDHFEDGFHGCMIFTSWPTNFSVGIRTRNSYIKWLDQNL
More on the design: endogenous NCEH1 activity in SKOV3 cells; endogenous in cells; host or cells: SKOV3; wild-type PC3; PAFAH2-expressing PC3. The note with it: previously reported; PC3 cells; read-out: IC50 for NCEH1 previously reported by gel-based profiling; cited from earlier work.

In another test the target is T2, PAFAH2 (Homo sapiens, UniProt Q99487).
T2 construct: Full-length, human ESD (NM_001984) and PAFAH2 (NM_000437) in pCMV6 entry vectors with C-terminal Myc-DDK tag
Briefly: ADPL quantification of PAFAH2 activity in stable PAFAH2 expressing PC3 cells. In kind it is cell-based. The note with it: same dose-range (0-1 μM). As for the experimental part:
Cells were seeded in the 12-well chamber slide, typically at 10,000-30,000 cells per well (Ibidi, #81201). To get an even distribution of the cells, the chamber slide was pre-wetted with cell culture medium, drained off, and the chamber was left at room temperature for 5-10 min after seeding. Cells at 80-90% confluency were pulse treated with either FP-Bio (2 μM) in DMEM and incubated at 37° C. for 40 min or Capthepsin probe (5 μM) in complete medium and incubated at 37° C. for 3 hr. Cells were washed with PBS, fixed with 4% paraformaldehyde in PBS at room temperature for 15 minutes, washed twice with PBS for 5 minutes each at room temperature with orbital shaking and then permeabilized in 0.5% Triton X-100 in PBS at room temperature for 15 minutes. Finally, cells were washed twice with 0.05% Tween-20 in PBS for 5 minutes each at room temperature with orbital shaking.
Prior to antibody incubation, the chamber was removed and the well boundaries delineated with the hydrophobic barrier pen (Vector laboratories, #H-4000). One-drop Duolink blocking buffer (Sigma, #DUO92004) was added and the slide was incubated at 37° C. for 30 minutes in a humidified chamber. […]

In the case of `CC(C)c1ccccc1OC(=O)NCCc1ccc2ccccc2c1` [JW480], on NCEH1, the IC50 is 12 nM. Besides, the “effect on PAFAH2 activity (ADPL signal)” value at PAFAH2 is given as “no inhibition of target signal was observed; also recorded: no effect”.
